One data set concerns H9 lymphocytes. Description: Cytotoxicity by trypan blue dye exclusion. Format: cell-based. More on the design: dose or concentration left out as unconfirmed. The source says:
Cytotoxicity of oligonucleotides was studied by culturing the cells with increasing concentration of oligonucleotide and by the trypan blue dye exclusion method.

In a further data set the test system is HIV-1. Briefly: Anti-HIV activity: p24 expression by ELISA in HIV-1 infected H9 lymphocytes. The note with it: for Inhibition of p24 (%): three days; for pIC50: Human immunodeficiency virus 1, Lymphocyte, p24 expression, positive control. Format: cell-based. Set-up: Inhibition of p24 (%): dose or concentration left out as unconfirmed. The procedure:
H9 lymphocytes were infected with HIV-1 virions (≡0.01 - 0.1 TCID50/cell) for one hour at 37°C. After one hour, unadsorbed virions were washed and the infected cells were divided among wells of 24 well plates. To the infected cells, an appropriate concentration (from stock solution) of oligonucleotide was added to obtain the required concentration in 2 ml medium. In a positive control experiment ddC or AZT was added. The cells were then cultured for three days. At the end of three days, supernatant from the infected culture was collected and measured for p24 expression by ELISA. The level of expression of p24 was compared between oligonucleotide treated and untreated (no drug) infected cells.
Background: ELISA stands for enzyme-linked immunosorbent assay.

Setting [1] is: Experiment 1, concentration 0.04.
Where [2] appears, read: Experiment 1, concentration 0.08.
Where [3] appears, read: Experiment 1, concentration 0.2.
[4] abbreviates: Experiment 1, concentration .0016.
Where [5] appears, read: Experiment 2, concentration 0.0016.
The mark [6] stands for this setting: Experiment 2, concentration 0.008.
The mark [7] stands for this setting: Experiment 2, concentration 0.04.
The mark [8] stands for this setting: Experiment 2, concentration 0.2.

The text below walks through data of patent EP0649467B1, “SELF-STABILIZED OLIGONUCLEOTIDES AS THERAPEUTIC AGENTS” (HYBRIDON, Inc., priority 1992, dated 1994).

Each structure is given as a SMILES string. pIC50: −log10 of the molar value. Where two headings read alike, the source gives them in different places.

What is called pIC50 is −log10 of the IC50, conventionally taken in molar units. As to `Cc1cn([C@H]2C[C@H](N=[N+]=[N-])[C@@H](CO)O2)c(=O)[nH]c1=O` [AZT], the “% Cell Survival” value came out at 98% with H9 lymphocytes (setting [1]); 104% in the data set on H9 lymphocytes (setting [2]); 95% in the data set with H9 lymphocytes (setting [3]); 108% in the data set with H9 lymphocytes (setting [4]); 103% with H9 lymphocytes (setting [5]); 101% in the data set with H9 lymphocytes (setting [6]). Also, the “% Cell Survival” value in the data set with H9 lymphocytes (setting [7]) is on record as 98%; in the data set on H9 lymphocytes (setting [8]) it was 93%. The “Inhibition of p24 (%)” value with HIV-1 (setting [1]) is 73%; in the data set with HIV-1 (setting [2]), 44%; with HIV-1 (setting [3]), 90%; in the data set with HIV-1 (setting [4]), 6%; in the data set with HIV-1 (setting [5]), 6%; in the data set with HIV-1 (setting [6]), 5%. Also, the figures for the “Inhibition of p24 (%)” value in the data set with HIV-1 (setting [7]) and in the data set with HIV-1 (setting [8]) were 65% and 89%, respectively. Besides, the pIC50 was 7.43 in the data set on HIV-1 (Experiment 1, read-out: IC50) and 7.00 with HIV-1 (Experiment 2).
